Laboratory results published in ChEMBL document CHEMBL1151312, “A concise conversion of (-)-sclareol into (+)-coronarin E and (-)-7-epi-coronarin A” (J Nat Prod, 1998).
Values after ≈ are worked out from the molar mass of the structure shown.

System: V79
Assay: Cytotoxicity against Chinese hamster V79 cells
Format: cell-based
Details: Cricetulus griseus

Compound: C=C1[C@@H](O)C[C@H]2C(C)(C)CCC[C@]2(C)[C@H]1/C=C/c1ccoc1 [CORONARIN A]
- IC50: 1.65 µg/mL (≈ 5.49 µM)
